Measurements taken from patent publication US5593988A, “Therapeutic agent for osteoporosis and diazepine compound” (Yoshitomi Pharmaceutical Industries, Ltd., priority 1991, dated 1997).
Like-named read-outs stand apart in the source and are kept apart here.

Test system: bone resorption (parietal bone)
Assay: Bone resorption-inhibitory activity (45Ca release from newborn mouse parietal bone, hPTH (1-34) stimulated, method of Raisz)
Format: cell-based, ICR mouse
Conditions: for inhibition at 20 µM / inhibition at 5 µM: read-out: bone resorption-inhibitory action, % against control
Source text: The method for determining the bone resorption-inhibitory activity of the Compound (I) and the results are shown in the following.
Bone resorption-inhibitory activity
The determination of the bone resorption-inhibitory activity basically followed the method of Raisz [J. Clin. Invest., vol. 44, pp. 103-116 (1965)].
A 1-2 days old new born ICR mouse was intraperitoneally administered with 1.5μ Ci ^45 Ca (CaCl2 solution of isotope of calcium) and parietal bone was asceptically removed the next day. The parietal bone was split into two along the central sature line and one of them was used as a control and the other was used for the experiment. The bone was preincubated in 0.5 ml of a BGJb medium (Fitton-Jackson modification, GIBCO Laboratories, U.S.A.) added with the test compound to a concentration of 5 μM or 20 μM and bovine serum albumin (1 mg/ml) at 37° C. for 2 days, and further incubated in the aforementioned medium containing 50 nM hPTH (1-34) for 3 days. After the incubation, the radioactivity of ^45 Ca in the medium and in the bone was measured and the ratio (%) of ^45 Ca released from the bone into the medium was calculated. [formula]
Using the bone obtained from the same mouse and treated in the same manner without the test compound as a control, the ratio (%) against the control was calculated according to the following equation. [formula]
The average of these values obtained from four pairs from each group was calculated.

[1] = 20 μM, Table 20, average of four pairs
[2] = Table 20, average of four pairs

SMILES	inhibition at 20 µM	inhibition at 20 µM [1]	further results
Cc1nnc2n1-c1sc(CCc3ccc(CC(C)C)cc3)cc1C(c1ccccc1)=NC2 [compound 1]	30.7%		
Cc1nnc2n1-c1sc(CCc3ccc(CC(C)C)cc3)cc1C(c1cccc(Cl)c1)=NC2 [compound 5]	26.7%		
CC(C)Cc1ccc(CCc2cc3c(s2)-n2cnnc2CN=C3c2ccccc2Cl)cc1 [compound 6]	30.2%		
Cc1nnc2n1-c1sc(CCc3ccc(CC(C)C)cc3)cc1C(c1ccccc1Cl)=NC2C (stereo not shown) [compound 9]	23.7%		IC50 (read-out: IC50 (figures in parentheses), bone resorption-inhibitory action): 7.5 µM
Cc1nnc2n1-c1sc(CCCc3ccc(CC(C)C)cc3)cc1C(c1ccccc1Cl)=NC2 [compound 11]		23.4%	
Cc1nnc2n1-c1sc(CCC(=O)N3CCOCC3)cc1C(c1ccccc1Cl)=NC2 [compound 19]	61.7%		
CCCCCCc1cc2c(s1)-n1c(C)nnc1CN=C2c1ccccc1C [compound 22]	23.4%		
CCCCCCCCCCc1cc2c(s1)-n1c(C)nnc1CN=C2c1ccccc1OC [compound 25]	17.5%		
CCCCCCCCCCCCc1cc2c(s1)-n1c(C)nnc1CN=C2c1ccccc1Cl [compound 27]	17%		
Cc1nnc2n1-c1sc(Cc3ccc(CC(C)C)cc3)cc1C(c1ccccc1Cl)=NC2 [compound 28]	16.5%		
CCCCCCCCc1ccc(CCc2cc3c(s2)-n2c(C)nnc2CN=C3c2ccccc2Cl)cc1 [compound 29]		16.4%	
Cc1nnc2n1-c1sc(CCc3ccc(CC(C)C)cc3)cc1C(c1ccccc1F)=NC2 [compound 30]	20.6%		
Cc1nnc2n1-c1sc(CCc3ccc(CC(C)C)cc3)cc1C(c1ccc(O)cc1)=NC2 [compound 31]	26.4%		
Cc1nnc2n1-c1sc(CCc3ccc(CC(C)C)cc3)cc1C(c1ccc(OCCN(C)C)cc1)=NC2 [compound 32]		16%	
CC(C)Cc1ccc(CCc2cc3c(s2)-n2c(nnc2C(C)(C)C)C(C)N=C3c2ccccc2Cl)cc1 (stereo not shown) [compound 34]		15.5%	
CCCc1nnc2n1-c1sc(CCc3ccc(CC(C)C)cc3)cc1C(c1ccccc1Cl)=NC2 [compound 35]	20%		
Cc1nnc2n1-c1sc(CCC(=O)N3CCN(C(c4ccccc4)c4ccccc4)CC3)cc1C(c1ccccc1Cl)=NC2 [compound 36]		21.9%	
Cc1nnc2n1-c1sc(CCC(=O)N3CCOCC3)cc1C(c1ccccc1Cl)=NC2C (stereo not shown) [compound 38]	46%		
Cc1nnc2n1-c1sc(CCCN3CCOCC3)cc1C(c1ccccc1Cl)=NC2C (stereo not shown) [compound 40]	32.8%		
CCCC1N=C(c2ccc(Cl)cc2)c2cc(CCc3ccc(CC(C)C)cc3)sc2-n2c(C)nnc21 (stereo not shown) [compound 42]		16.9%	
Cc1nnc2n1-c1sc(CCc3ccc(CC(C)C)cc3)cc1C(c1ccccc1Cl)=NC2CC(C)C (stereo not shown) [compound 43]		21.2%	
Cc1nnc2n1-c1sc(CCc3ccc(CC(C)C)cc3)cc1C(c1ccccc1Cl)=NC2c1ccccc1 (stereo not shown) [compound 44]		15.7%	
Cc1nnc2n1-c1sc(CCc3ccc(CC(C)C)cc3)cc1C(c1ccccc1Cl)=NC2Cc1ccccc1 (stereo not shown) [compound 46]		21.1%	

SMILES	inhibition at 20 µM	inhibition at 20 µM [1]	further results
CCc1cc2c(s1)-n1c(C)nnc1C(NC(=O)c1cc3ccccc3[nH]1)N=C2c1ccccc1Cl (stereo not shown) [compound 48]		25.7%	
CCc1cc2c(s1)-n1c(C)nnc1C(NC(=O)c1ccccc1)N=C2c1ccccc1Cl (stereo not shown) [compound 50]		26.4%	
CCc1cc2c(s1)-n1c(C)nnc1C(NC(=O)Nc1cccc(C)c1)N=C2c1ccccc1Cl (stereo not shown) [compound 51]		26.9%	
Cc1nnc2n1-c1sc3c(c1C(c1ccccc1Cl)=N[C@H]2C)CCN(C(=O)C1CC1)C3 [compound 52]	29.9%		
CCCN(CCC)C(=O)C1Cc2sc3c(c2C1)C(c1ccccc1Cl)=NCc1nnc(C)n1-3 (stereo not shown) [compound 53]		73.5%	
Cc1nnc2n1-c1sc3c(c1C(c1ccccc1Cl)=NC2C)CC(C(=O)N1CCOCC1)C3 (stereo not shown) [compound 54]		31.7%	
CCCCCCc1cc2c(s1)NC(=O)CN=C2c1ccccc1Cl [compound 60]	58.6%		
CCCCCCCCc1cc2c(s1)N(CCN(C)C)C(=O)CN=C2c1ccccc1Cl [compound 62]	27.4%		
CC(C)Cc1ccc(CCc2cc3c(s2)N(CCN(C)C)C(=O)CN=C3c2ccccc2Cl)cc1 [compound 64]		25.2%	
CCc1cc2c(s1)-n1c(noc1=O)CN=C2c1ccccc1Cl [compound 66]	56.3%		
CCc1cc2c(s1)-n1ccnc1CN=C2c1ccccc1Cl [compound 67]	55.3%		
Cc1nnc2n1-c1ccc(Cl)cc1C(c1ccccc1Cl)=NC2 [compound 68]	57.5%		
Cc1nnc2n1-c1ccc(Cl)cc1C(c1ccccc1)=NC2 [compound 69]	21.9%		
Clc1ccc2c(c1)C(c1ccccc1Cl)=NCc1nccn1-2 [compound 70]	50.3%		
CCc1cc2c(s1)-n1c(C)nnc1C(NC(=O)Nc1ccc(Cl)cc1)N=C2c1ccc(Cl)cc1 (stereo not shown) [compound 75]			inhibition at 5 µM [2]: 47.7%
CCc1cc2c(s1)-n1c(C)nnc1C(NC(=O)Nc1cccc(OC)c1)N=C2c1ccc(Cl)cc1 (stereo not shown) [compound 76]			inhibition at 5 µM [2]: 29.5%
CCCCCCc1cc2c(s1)-n1c(C)nnc1C(NC(=O)Nc1cccc(C)c1)N=C2c1ccc(Cl)cc1 (stereo not shown) [compound 78]			inhibition at 5 µM [2]: 45.4%
Cc1cccc(NC(=O)NC2N=C(c3ccccc3Cl)c3c(sc(C)c3C)-n3c(C)nnc32)c1 (stereo not shown) [compound 83]			inhibition at 5 µM [2]: 35%
CCc1cc2c(s1)-n1c(C3CCCCC3)nnc1C(NC(=O)Nc1cccc(C)c1)N=C2c1ccccc1Cl (stereo not shown) [compound 84]			inhibition at 5 µM [2]: 65.3%
CCc1cc2c(s1)-n1c(C)nnc1C(NC(=O)Nc1cccc(C)c1)N=C2c1ccc(C)cc1 (stereo not shown) [compound 86]			inhibition at 5 µM [2]: 30.3%
CCc1cc2c(s1)-n1c(C)nnc1C(NC(=O)Nc1ccccc1)N=C2c1ccc(Cl)cc1 (stereo not shown) [compound 87]			inhibition at 5 µM [2]: 31.6%
CCc1cc2c(s1)-n1c(C)nnc1C(NC(=O)Nc1cccc(C)c1)N=C2c1ccccc1 (stereo not shown) [compound 88]			inhibition at 5 µM [2]: 33.8%
CCc1cc2c(s1)-n1c(C)nnc1C(NC(=O)Nc1ccccc1OC)N=C2c1ccc(Cl)cc1 (stereo not shown) [compound 90]			inhibition at 5 µM [2]: 34.2%; IC50 (Table 20, read-out: IC50 (figures in parentheses), bone resorption-inhibitory action): 0.25 µM

SMILES	inhibition at 20 µM	inhibition at 20 µM [1]	further results
CCc1cc2c(s1)-n1c(C)nnc1C(NC(=S)Nc1ccccc1)N=C2c1ccccc1Cl (stereo not shown) [compound 93]			inhibition at 5 µM [2]: 63.5%
CCCCc1cc2c(s1)-n1c(C)nnc1C(NC(=O)Nc1cccc(C)c1)N=C2c1ccc(Cl)cc1 (stereo not shown) [compound 98]			inhibition at 5 µM [2]: 35%
CCc1cc2c(s1)-n1c(C3CCCCC3)nnc1C(NC(=O)Nc1ccccc1OC)N=C2c1ccccc1Cl (stereo not shown) [compound 100]			inhibition at 5 µM [2]: 55.5%
CCc1cc2c(s1)-n1c(C)nnc1C(CC(=O)Nc1ccccc1OC)N=C2c1ccc(Cl)cc1 (stereo not shown) [compound 250]		27.3%	
CCc1cc2c(s1)-n1c(C)nnc1C(NS(=O)(=O)c1ccc(C)cc1)N=C2c1ccc(Cl)cc1 (stereo not shown) [compound 254]		32.5%	
CCc1cc2c(s1)-n1c(C)nnc1C(NC(=O)Cc1ccccc1)N=C2c1ccccc1Cl (stereo not shown) [compound 255]		54.3%	
CCc1cc2c(s1)-n1c(C)nnc1C(OC(=O)Nc1cccc(C)c1)N=C2c1ccc(OC)cc1 (stereo not shown) [compound 257]	27.1%		
CCCCCCCCCCCc1nnc2n1-c1sc(CC)cc1C(c1ccc(O)cc1)OC2 (stereo not shown) [compound 302]		22.4%	
CCCCCCCCCCCc1nnc2n1-c1sc(CC)cc1C(c1ccccc1)OC2 (stereo not shown) [compound 304]		28.6%	
CCCCCCCCCCCc1nnc2n1-c1sc3c(c1C(c1ccccc1Cl)OC2)CCCC3 (stereo not shown) [compound 307]		42.4%	
Cc1nnc2n1-c1sc(CCc3ccc(CC(C)C)cc3)cc1C(c1ccccc1Cl)OC2 (stereo not shown) [compound 324]		33.1%	
CCc1cc2c(s1)-n1c(CCCc3ccc(CC(C)C)cc3)nnc1COC2c1ccc(Cl)cc1 (stereo not shown) [compound 330]		35.6%	
CCCCCCCc1nnc2n1-c1sc(CC)cc1C(c1ccc(OC)cc1)OC2 (stereo not shown) [compound 348]		30.3%	
CCCCCCCCCCCc1nnc2n1-c1sc(CC)cc1C(c1ccc(OCCN(C)C)cc1)OC2 (stereo not shown) [compound 354]		23.2%	
CCCCCCCCCCCc1nnc2n1-c1sc(CC)cc1C(c1ccc(C)cc1)OC2 (stereo not shown) [compound 357]		24.7%	
CCOC(=O)C1(NC(=O)Nc2cccc(C)c2)N=C(c2ccc(Cl)cc2)c2ccccc2-n2c(C)nnc21 (stereo not shown) [compound 501]	29.5%		
COc1ccccc1NC(=O)NC1N=C(c2ccc(Cl)cc2)c2ccccc2-n2c(C)nnc21 (stereo not shown) [compound 502]	31.8%		
Cc1cccc(NC(=O)NC2N=C(c3ccc(Cl)cc3)c3ccccc3-n3c(C)nnc32)c1 (stereo not shown) [compound 503]	30.4%		
Cc1nnc2n1-c1ccccc1C(c1ccc(Cl)cc1)=NC2NC(=O)OCc1ccccc1 (stereo not shown) [compound 504]	24.6%		
COc1ccccc1NC(=O)NCC1N=C(c2ccc(Cl)cc2)c2ccccc2-n2c(C)nnc21 (stereo not shown) [compound 505]	53.5%		
Cc1cccc(NC(=O)NCC2N=C(c3ccc(Cl)cc3)c3ccccc3-n3c(C)nnc32)c1 (stereo not shown) [compound 506]	32.5%		
Cc1nnc2n1-c1ccccc1C(c1ccc(Cl)cc1)=NC2NS(=O)(=O)Cc1ccccc1 (stereo not shown) [compound 507]	35.6%		
